The text below walks through data of patent US5612341A, “Brominated hexahydroxybiphenyl derivatives” (Biotech Research Laboratories, priority 1995, dated 1997).

Molecules are shown by their SMILES. ≈ marks a conversion by molar mass, not a printed value. Where a name gives a salt, the structure may show the parent alone. Read-outs that look alike come from different tables or passages of the source.

Common to all, as to format: cell-based
Test [1] has as its system chronically HIV-1 infected promonocytic cell line, U1. Description: Virus expression in chronically HIV-1 infected promonocytic U1 cells (p24 ELISA). On the procedure: Therefore, compounds 4 and 5 were separately added for 72 hours to the chronically HIV-1 infected T cell line, ACH-2, and to the chronically HIV-1 infected promonocytic cell line, U1.
HIV-1 chronically infected T cell line, ACH-2, ^15 and HIV-1 chronically infected promonocytic cell line, U1 ^16 were continuously maintained in RPMI1640 with 10% fetal calf serum (FCS). For experiments, the cell lines were only used in log-phase of growth. Cells (1×10^6 cells/well) and either various concentrations of 4,5, AZT or media alone were added to 24-well plates in the presence or absence of PMA (10^-8 M). After 72 hours at 37° C. and 5% CO2, an aliquot of the cell-free supernatants was collected and analyzed for p24 antigen by ELISA.
For orientation: ELISA stands for enzyme-linked immunosorbent assay.

Test [2] relates to HIV-1 (IIIB isolate). Description: microbe, parasite or virus in culture. Particulars: for Therapeutic Index: 5760 min; for EC50: acutely infected H9 lymphocytes; for anti-HIV activity: result in words. The method, then: (§1) The H9 T cell line was maintained in continuous culture with complete medium (RPMI and 10% fetal calf serum) at 5% CO2 and 37° C. and was used in experiments only when in log phase of growth. The cells were incubated with HIV-1 (IIIB isolate, TCID50 10^4 IU/mL, at a multiplicity of infection of 0.1-0.01 IU/cell) for 1 hour at 37° C. and 5% CO2. The cells then were washed thoroughly to remove unabsorbed virions and resuspended at 4×10^5 cells/mL in complete medium. Aliquots (1 mL) were placed in wells of 24-well culture plates containing an equal volume of test compound (diluted in the culture medium). After a four day incubation at 37° C., cell density of uninfected cultures was determined by counting cells in a Coulter counter to assess toxicity of the test compound. A p24 antigen ELISA assay was used to determine the level of virus released in the medium of the HIV-infected cultures. The p24 antigen assay uses an HIV-1 anti-p24 specific monoclonal antibody as the capture antibody coated on 96 well plates. Following a sample incubation period, rabbit serum containing antibodies for HIV-1 p24 is used to tag any p24 "captured" onto the microtiter well surface. […] The cut-off for the p24 ELISA assay is 12.5 pg/mL. P24 in the culture medium was quantitated against a standard curve containing known amounts of p24. The effective (EC50) and inhibitory concentrations (for anti-HIV activity and cytotoxicity, respectively) were determined.

In test [3] the test system is H9 T cell line. Description: Toxicity to uninfected H9 cells (cell count). The method, then:
as §1

[4] abbreviates: Table I, cytotoxicity, uninfected H9 cells.
Where [5] appears, read: Homo sapiens, H9, Table I, cytotoxicity, uninfected H9 cells, read-out: IC50.
The mark [6] stands for this setting: Human immunodeficiency virus 1, IIIB, Lymphocyte, Table I, read-out: EC50.
Where [7] appears, read: T-cell, Table IA, concentration that causes a 50% reduction in total cell number, read-out: IC50.
Setting [8] is: Human immunodeficiency virus 1, IIIB, Lymphocyte, Table IA, read-out: EC50.

As to `Cc1cn([C@H]2C[C@H](N=[N+]=[N-])[C@@H](CO)O2)c(=O)[nH]c1=O` [AZT, azidothymidine, reference compound], the p24 in test [1] (+Media, 0.1 μg/mL) is 18 pg/mL; in test [1] (+Media, 1 μg/mL) it was 12 pg/mL; in test [1] (+Media, 10 μg/mL), 13 pg/mL; in test [1] (+Media, 100 μg/mL), 22 pg/mL; in test [1] (+PMA, 0.1 μg/mL) it was 8,070 pg/mL; in test [1] (+PMA, 1 μg/mL) it was 8,218 pg/mL. Besides, the p24 in test [1] (+PMA, 10 μg/mL) is on record as 9,299 pg/mL; in test [1] (+PMA, 100 μg/mL) it was 9,338 pg/mL.
By EC50 is commonly meant the concentration that produces a half-maximal response. In general, IC50 refers to the midpoint of a concentration-inhibition curve. Take `COc1c(Br)c(C(=O)O)c(-c2c3c(c(OC)c(Br)c2C(=O)O)OCO3)c2c1OCO2` [Compound 6, 3,3'-Dibromo-4,4'-dimethoxy-5,6,5'6'-bimethylenedioxy-2,2'-dicarboxy biphenyl]: the “Therapeutic Index” value in test [2] (Table I, IC50/EC50) stood at 1. In addition, the concentration giving a half-maximal response (EC50) in test [2] (Table I) was over 100 mg/L. The anti-HIV activity entry in test [2] is listed as “decrease in the anti-HIV activity”. Moreover, in test [3] (setting [4]), the IC50 was over 100 mg/L.
As for `COc1c(Br)c(C(=O)O)c(-c2c3c(c(OC)c(Br)c2C(=O)O)OCO3)c2c1OCO2` [Compound 7, 3,3'-Dibromo-4,4'-dimethoxy-5,6,5'6'-bimethylenedioxy-2,2'-dicarboxy biphenyl disodium salt], in test [2] (Table I, IC50/EC50, disodium salt), the “Therapeutic Index” value is given as 1. In addition, the EC50 in test [2] (Table I, disodium salt) is over 100 mg/L. Further, the anti-HIV activity entry in test [2] is “decrease in the anti-HIV activity”. Besides, in test [3] (Table I, cytotoxicity, uninfected H9 cells, disodium salt), the concentration for half-maximal inhibition (IC50) was over 100 mg/L.
Take `COc1c2c(c3c(c1Br)c(=O)oc(=O)c1c(Br)c(OC)c4c(c13)OCO4)OCO2` [Compound 8, 3,3'-Dibromo-4,4'-dimethoxy-5,6,5'6'-bimethylenedioxy biphenyl 2,2'-dicarboxylic anhydride]: in test [3] (setting [5]), the concentration for half-maximal inhibition (IC50) is over 100 mg/L.
On to `CCOC(=O)c1c(Br)c(OC)c2c(c1-c1c3c(c(OC)c(Br)c1C(=O)O)OCO3)OCO2` [Compound 9, 3,3'-Dibromo-4,4'-dimethoxy-5,6,5'6'-bimethylenedioxy-2-ethoxycarbonyl-2'-carboxy biphenyl], for which the 50% effective concentration (EC50) in test [2] (setting [6]) was found to be 60 mg/L (≈ 104 µM). In addition, the “Therapeutic Index” value in test [2] (Table I, IC50/EC50) is reported as over 1.7. Besides, the anti-HIV activity result in test [2] is listed as “decrease in the anti-HIV activity”. Further, the IC50 in test [3] (setting [5]) is over 100 mg/L.
Turning to `CCOC(=O)c1c(Br)c(OC)c2c(c1-c1c3c(c(OC)c(Br)c1C(=O)O)OCO3)OCO2` [Compound 10, 3,3'-Dibromo-4,4'-dimethoxy-5,6,5'6'-bimethylenedioxy-2-ethoxycarbonyl-2'-carboxy biphenyl monosodium salt], the IC50 in test [3] (setting [4]) is over 100 mg/L.
With `COc1c(Br)c(C(=O)O)c(-c2c3c(c(OC)c(Br)c2C(=O)OCC[N+](C)(C)C)OCO3)c2c1OCO2` [Compound 11, 3,3'-Dibromo-4,4'-dimethoxy-5,6,5'6'-bimethylenedioxy-2-carboxy-2'-(β-N,N,N-trimethylamino)ethoxycarbonyl biphenyl chloride], the half-maximal effective concentration (EC50) in test [2] (setting [6]) was over 100 mg/L. Further, the “Therapeutic Index” value in test [2] (Table I, IC50/EC50) is 1. Further, in test [2], the anti-HIV activity result is listed as “decrease in the anti-HIV activity”. Also, the IC50 in test [3] (setting [5]) is over 100 mg/L.
Regarding `COc1c(Br)c(C(=O)O)c(-c2c3c(c(OC)c(Br)c2C(=O)NCCN2CCNCC2)OCO3)c2c1OCO2` [Compound 12, 3,3'-Dibromo-4,4'-dimethoxy-5,6,5'6'-bimethylenedioxy-2-carboxy-2'-(β-N-piperazine)ethylcarbonyl biphenyl], the 50% effective concentration (EC50) in test [2] (setting [6]) was determined as 30 mg/L (≈ 45.5 µM). The “Therapeutic Index” value in test [2] (Table I, IC50/EC50) was over 3.3. The anti-HIV activity result in test [2] is given as “decrease in the anti-HIV activity”. Besides, the IC50 in test [3] (setting [5]) is over 100 mg/L.
In the case of `COc1c(Br)c(C(=O)O)c(-c2c3c(c(OC)c(Br)c2C(=O)NCCN2CCCC2)OCO3)c2c1OCO2` [Compound 13, 3,3'-Dibromo-4,4'-dimethoxy-5,6,5'6'-bimethylenedioxy-2-carboxy-2'-(β-N-pyrrolidinyl)ethylcarbonyl biphenyl hydrobromide], the EC50 in test [2] (setting [6]) is over 100 mg/L. The “Therapeutic Index” value in test [2] (Table I, IC50/EC50) was determined as 1. Further, the anti-HIV activity entry in test [2] is recorded as “decrease in the anti-HIV activity”. Further, the IC50 in test [3] (setting [5]) was over 100 mg/L.
On to `COc1c(Br)c(C(=O)O)c(-c2c3c(c(OC)c(Br)c2C(=O)O)OCO3)c2c1OCO2` [Compound 14, 3,3'-Dibromo-4,4'-dimethoxy-5,6,5',6'-bimethylenedioxy-2,2'-dicarboxy biphenyl di-1-(2-hydroxyethyl)pyrrolidinium salts], for which the half-maximal effective concentration (EC50) in test [2] (Table I) was 17 mg/L.
Regarding `CCCCCCOC(=O)c1c(Br)c(OC)c2c(c1-c1c3c(c(OC)c(Br)c1C(=O)OCCCCCC)OCO3)OCO2` [Compound 15, 3,3'-Dibromo-4,4'-dimethoxy-5,6,5'6'-bimethylenedioxy-2,2'-dihexanoxycarbonyl biphenyl], the EC50 in test [2] (setting [6]) was found to be 2 mg/L (≈ 2.79 µM). Moreover, in test [2] (Table I, IC50/EC50), the “Therapeutic Index” value is over 50. Further, the IC50 in test [3] (setting [5]) was over 100 mg/L.
Turning to `COC(=O)c1cc(OCc2ccccc2)c(OCc2ccccc2)c(OC)c1-c1c(OC)c(OCc2ccccc2)c(OCc2ccccc2)c(Br)c1C(=O)OC` [Compound 16, 2,2'-Dimethoxycarbonyl-3-bromo-4,4',5,5'-tetrakis(benxyloxy)-6,6'-dimethoxybiphenyl], the EC50 in test [2] (setting [6]) is over 100 mg/L. For the same compound, the “Therapeutic Index” value in test [2] (Table I, IC50/EC50) was determined as 1. The anti-HIV activity result in test [2] is reported as “no anti-HIV activity”. Moreover, the 50% inhibitory concentration (IC50) in test [3] (setting [5]) was over 100 mg/L.
As for `COC(=O)c1c(Br)c(OCc2ccccc2)c(OCc2ccccc2)c(OC)c1-c1c(OC)c(OCc2ccccc2)c(OCc2ccccc2)c(Br)c1C(=O)OC` [Compound 17, 2,2'-Dimethoxycarbonyl-3,3'-dibromo-4,4'5,5'-tetrakis(benzyloxy)-6,6'-dimethoxy biphenyl], the half-maximal effective concentration (EC50) in test [2] (setting [6]) is over 100 mg/L. The “Therapeutic Index” value in test [2] (Table I, IC50/EC50) stood at 1. For the same compound, in test [2], the anti-HIV activity entry is listed as “no anti-HIV activity”. Also, the 50% inhibitory concentration (IC50) in test [3] (setting [5]) was over 100 mg/L.
With `COc1c(OCc2ccccc2)c(OCc2ccccc2)cc(CO)c1-c1c(CO)c(Br)c(OCc2ccccc2)c(OCc2ccccc2)c1OC` [Compound 18, 2,2'-Dihydroxymethyl-3-bromo-4,4'5,5'-tetrakis(benzyloxy)-6,6'-dimethoxy biphenyl], the half-maximal effective concentration (EC50) in test [2] (setting [6]) came to 100 mg/L (≈ 129 µM). For the same compound, in test [2] (Table I, IC50/EC50), the “Therapeutic Index” value was over 1. In addition, in test [2], the anti-HIV activity result is recorded as “no anti-HIV activity”. Further, the half-inhibitory concentration (IC50) in test [3] (setting [5]) was over 100 mg/L.
On to `COc1c(OCc2ccccc2)c(OCc2ccccc2)c(Br)c(CO)c1-c1c(CO)c(Br)c(OCc2ccccc2)c(OCc2ccccc2)c1OC` [Compound 19, 2,2'-Dihydroxymethyl-3,3'-dibromo-4,4'5,5'-tetrakis(benzyloxy)-6,6'-dimethoxy diphenyl], for which the EC50 in test [2] (setting [6]) was over 100 mg/L. For the same compound, the “Therapeutic Index” value in test [2] (Table I, IC50/EC50) is given as 1. Further, the anti-HIV activity result in test [2] is given as “no anti-HIV activity”. Further, the IC50 in test [3] (setting [5]) is over 100 mg/L.
For the compound `COC(=O)c1c2c(c(OC)c(Br)c1-c1c(Br)c(OC)c3c(c1C(=O)OC)OCO3)OCO2` [Compound 110, 6,6'-Dibromo-5,5'-dimethoxy-3,4,3'4'-bimethylenedioxy-2,2'-dimethoxycarbonyl biphenyl], in test [2] (Table IA), the half-maximal effective concentration (EC50) result is on record as “no inhibition”. Moreover, in test [3] (setting [7]), the 50% inhibitory concentration (IC50) amounted to 45 mg/L (≈ 78.1 µM).
Turning to `COC(=O)c1cc2c(c(OC)c1-c1c(C(=O)OC)cc3c(c1OC)OCO3)OCO2` [Compound 114, 6,6'-dimethoxy-4,5,4'5'-bimethylenedioxy-2,2'-dimethoxycarbonyl biphenyl], the EC50 in test [2] (setting [8]) came out at 65 mg/L (≈ 155 µM). Also, the “Therapeutic Index” value in test [2] (Table IA, ratio IC50/EC50) was over 1.2. Also, the 50% inhibitory concentration (IC50) in test [3] (setting [7]) was over 100 mg/L.
Take `COC(=O)c1cc2c(c(OC)c1-c1c(C(=O)OC)cc(OC)c3c1OCO3)OCO2` [Compound 115, 4,6'-dimethoxy-5,6,4'5'-binethylenedioxy,2,2'-dimethoxycarbonyl biphenyl]: the EC50 in test [2] (setting [8]) is 7.5 mg/L (≈ 17.9 µM). In addition, the “Therapeutic Index” value in test [2] (Table IA, ratio IC50/EC50) is over 13. In addition, in test [3] (setting [7]), the half-maximal inhibitory concentration (IC50) is over 100 mg/L.
As for `COC(=O)c1c(-c2cc(OC)c3c(c2C(=O)OC)OCO3)cc(OC)c2c1OCO2` [Compound 116, 5,5'-Dimethoxy-3,4,3 '4'-bismethylenedioxy-2,2'-dimethoxycarbonyl biphenyl], the concentration giving a half-maximal response (EC50) in test [2] (setting [8]) was determined as 70 mg/L (≈ 167 µM). In addition, in test [2] (Table IA, ratio IC50/EC50), the “Therapeutic Index” value was over 1.4. The 50% inhibitory concentration (IC50) in test [3] (setting [7]) was over 100 mg/L.
